From the supplement of paper PMC12370961

Assays:
Test in all cases: differential drug sensitivity score (dDSS) relative to sarcoma reference cohort mean DSS (DSS units (0-100 scale difference)); higher = more selective sensitivity than reference sarcomas
Details in all cases: exposure time: 72 h; concentration range: 10-10000 nM
ES-ZH009 = system: ES-ZH009 (patient-derived Ewing sarcoma tumoroid)
Procedure: (§1)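 Drug response profiling of patient-derived Ewing sarcoma and CIC::DUX4 sarcoma tumoroid models (or cells tested directly after isolation from the tumor, 'direct'). The DSS is the normalised AUC (0-100); dDSS is the sample DSS minus the mean DSS of a 34-sarcoma reference cohort profiled in the same lab.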

ES-ZH008 = system: ES-ZH008 (patient-derived Ewing sarcoma tumoroid)
Procedure: as §1

ES-ZH016 direct = system: ES-ZH016 direct (Ewing sarcoma cells right after isolation)
Procedure: as §1

CDS-ZH002 = system: CDS-ZH002 (patient-derived CIC-DUX4 sarcoma tumoroid)
Procedure: as §1

ES-ZH016 = system: ES-ZH016 (patient-derived Ewing sarcoma tumoroid)
Procedure: as §1

CDS-ZH001 = system: CDS-ZH001 (patient-derived CIC-DUX4 sarcoma tumoroid)
Procedure: as §1

ES-ZH002 = system: ES-ZH002 (patient-derived Ewing sarcoma tumoroid)
Procedure: as §1

CDS-ZH003 = system: CDS-ZH003 (patient-derived CIC-DUX4 sarcoma tumoroid)
Procedure: as §1

CDS-ZH001-2 = system: CDS-ZH001-2 (patient-derived CIC-DUX4 sarcoma tumoroid)
Procedure: as §1

ES-ZH004 = system: ES-ZH004 (patient-derived Ewing sarcoma tumoroid)
Procedure: as §1

CDS-ZH002 direct = system: CDS-ZH002 direct (CIC-DUX4 sarcoma cells right after isolation)
Procedure: as §1

ES-ZH007 = system: ES-ZH007 (patient-derived Ewing sarcoma tumoroid)
Procedure: as §1

ES-ZH001 = system: ES-ZH001 (patient-derived Ewing sarcoma tumoroid)
Procedure: as §1

Row | Compound | differential drug sensitivity score (ES-ZH009) | differential drug sensitivity score (ES-ZH008) | differential drug sensitivity score (ES-ZH016 direct) | differential drug sensitivity score (CDS-ZH002) | differential drug sensitivity score (ES-ZH016) | differential drug sensitivity score (CDS-ZH001) | differential drug sensitivity score (ES-ZH002) | differential drug sensitivity score (CDS-ZH003) | differential drug sensitivity score (CDS-ZH001-2) | differential drug sensitivity score (ES-ZH004) | differential drug sensitivity score (CDS-ZH002 direct) | differential drug sensitivity score (ES-ZH007) | differential drug sensitivity score (ES-ZH001)
1 | Cc1nc(Nc2n[nH]c3c2CN(C(=O)N[C@H](CN(C)C)c2ccccc2)C3(C)C)c2sccc2n1 | 12.7 | 4.9 | -4.7 | 0 | 0.7 | 5.9 | 15.4 | -5.2 | 5.3 | 9.2 | 3.6 | 17.9 | 5.3
2 | CC[C@H](Nc1ncnc2[nH]cnc12)c1nc2cccc(F)c2c(=O)n1-c1ccccc1 [Idelalisib] | -1.5 | -1.5 | -1.5 | -1.4 | 1.5 | -1.4 | 1.3 | 2.9 | -1.3 | -1.5 | -1.5 | -1.5 | -1.5
3 | COc1cccc(-c2cc(F)ccc2[C@H]2Cc3nc(N)nc(C)c3C(=O)N2)n1 [HSP-990] | 6 | 7.1 | 4.9 | -9.2 | 3.4 | 1.4 | 8.8 | 1.3 | 0.3 | -0.8 | -4 | 1.2 | 3.8
4 | Cc1[nH]c2ccccc2c1CCNCc1ccc(/C=C/C(=O)NO)cc1 [Panobinostat] | 10.3 | 6.6 | 7.4 | -1.1 | 6.6 | -2.7 | 4 | -3.6 | 4.9 | 5.4 | 2 | 6.3 | 3.6
5 | CCCS(=O)(=O)Nc1ccc(F)c(C(=O)c2c[nH]c3ncc(-c4ccc(Cl)cc4)cc23)c1F [Vemurafenib] | 0.8 | -0.6 | -0.6 | -0.6 | -0.6 | -0.6 | -0.6 | 7.4 | -0.6 | -0.6 | -0.6 | -0.6 | -0.6
6 | N#CCNC(=O)c1ccc(-c2ccnc(Nc3ccc(N4CCOCC4)cc3)n2)cc1 [Momelotinib] | 0.5 | -0.8 | -0.5 | -1.2 | 2.6 | -1.2 | 3.7 | -1.2 | -1.2 | -1.2 | -1.2 | -1.2 | 4
7 | Cc1cnc(NC(=O)Nc2cc(Br)c(C)cc2OC[C@@H]2CNCCO2)cn1 [Rabusertib] | 6.1 | 12.5 | 5.6 | 1.8 | 8.7 | 8.8 | 10.7 | -4.9 | 7.2 | 1.2 | 2.4 | 8.8 | 6
8 | CS(=O)(=O)OCCCCOS(C)(=O)=O [Busulfan] | -1.2 | -0.1 | 6.4 | -1.2 | -1.1 | -1.2 | 5.9 | -1.2 | -0.8 | 2.9 | -1.2 | -1.2 | 3.9
9 | Nc1ncc(-c2nc(N3CCOCC3)nc(N3CCOCC3)n2)c(C(F)F)n1 [PQR514] | 7.1 | 10.1 | 5.4 | -6.5 | 5 | 3.9 | 15.5 | -0.5 | 7 | 0.8 | -2.6 | -1.3 | -3.3
10 | CC(C)n1nc(-c2cc3cc(O)ccc3[nH]2)c2c(N)ncnc21 [Torkinib] | 2 | 8.1 | -1.3 | -1.3 | 2.2 | 4.4 | 13.7 | -3.5 | 2.3 | 5.2 | -0.9 | 1.1 | 2.1
11 | Cc1cnc(Nc2ccc(OCCN3CCCC3)cc2)nc1Nc1cccc(S(=O)(=O)NC(C)(C)C)c1 [Fedratinib] | 3.9 | 1.5 | -0.1 | -1.7 | -1.3 | -0.1 | 5.5 | -2.2 | 0.2 | -3.2 | -3.3 | -1.8 | 1.8
12 | CCN(CC)CCCC(C)Nc1nc(C)cc(Nc2ccc3nc(C)cc(N)c3c2)n1 (stereo not given) | -0.9 | -1 | -1 | 1.1 | -1 | -0.8 | 0.7 | -1 | 9.7 | 1.1 | 2.8 | 0.4 | -1
13 | CN(C)Cc1c(C(=O)NCCOc2ccc(C(=O)NO)cc2)oc2ccccc12 [Abexinostat] | 10.5 | 9.6 | 2.4 | 0.1 | 4.3 | -3.5 | 3.9 | -11.2 | 4.2 | 3.2 | -0.7 | 4.9 | 5.3
14 | COc1cc(Nc2c(C#N)cnc3cc(OCCCN4CCN(C)CC4)c(OC)cc23)c(Cl)cc1Cl [Bosutinib] | 0.5 | -0.5 | 0.2 | 0.1 | 1.1 | 0.6 | -0.5 | -0.4 | 1.8 | -0.5 | -0.5 | -0.5 | -0.5
15 | CN1CCN(c2ccc3nc(-c4c(N)c5c(F)cccc5[nH]c4=O)[nH]c3c2)CC1 [Dovitinib] | 1.5 | 1.7 | 7.6 | -4 | -3.2 | -2.9 | 6.3 | -4 | 1.1 | -1.9 | -1.6 | -3.8 | 0.4
16 | COc1cccc2c1C(=O)c1c(O)c3c(c(O)c1C2=O)C[C@@](O)(C(C)=O)C[C@@H]3O[C@H]1C[C@H](N)[C@H](O)[C@H](C)O1 [Daunorubicin] | 12.6 | 3.2 | 12.9 | 2.8 | 12.2 | 4.9 | 21.7 | 0.8 | 13.2 | -4.5 | 2.7 | -5.2 | 9.1
17 | O=C(c1ccc(F)c(F)c1Nc1ccc(I)cc1F)N1CC(O)([C@@H]2CCCCN2)C1 [Cobimetinib] | -4.5 | -6.2 | -3.5 | -6.7 | -3.8 | -5.4 | 2.5 | -6.7 | -5.7 | 0 | -3.5 | -3 | 1.4
18 | CN(C)/N=N/c1[nH]cnc1C(N)=O [Dacarbazine] | 0.9 | 2.8 | -0.8 | -0.8 | -0.8 | -0.8 | 7.5 | -0.7 | -0.7 | 0.1 | -0.8 | -0.8 | -0.7
19 | COc1ncc(-c2ccc3nccc(-c4ccnnc4)c3c2)cc1NS(=O)(=O)c1ccc(F)cc1F [Omipalisib] | 9 | 11.4 | 2.7 | -4.5 | 2 | 6.3 | 12.8 | 5.6 | 8.8 | 0.9 | -3.7 | 6.3 | -3.7
20 | CC(=O)[C@]1(O)Cc2c(O)c3c(c(O)c2[C@@H](O[C@H]2C[C@H](N)[C@H](O)[C@H](C)O2)C1)C(=O)c1ccccc1C3=O [Idarubicin] | 13.4 | 6.4 | 7.3 | 0.5 | 11.8 | -0.3 | 19.4 | 0.5 | 7 | -2.2 | 1.8 | -9.5 | 11.8
21 | CN1C(=O)N[C@H](Cc2c[nH]c3c(Cl)cccc23)C1=O [Necrostatin-2] | -2.7 | 13.8 | 15.6 | -1.9 | -1.3 | -2.7 | 2.2 | -2.7 | 8.4 | 7.5 | -2.5 | -2.7 | -1
22 | O=C(NCCCNc1nc(Nc2cccc(NC(=O)N3CCCC3)c2)ncc1I)c1cccs1 [BX-795] | 1.1 | -2.2 | 5.1 | -1.9 | 2.6 | -4.1 | 2.2 | 5.5 | -2.6 | -3.5 | -2.6 | 0 | 3.7
23 | CCn1cc(-c2cccc(C(F)(F)F)c2)c2sc(C(=N)NC3CCS(=O)(=O)CC3)cc2c1=O [I-BRD9] | 2.6 | -2.8 | 9.8 | -1 | -1.6 | 2.7 | -1.8 | 8.4 | 3.3 | -2.8 | -2.6 | -1.8 | -1.6
24 | Nc1ncn([C@H]2C[C@H](O)[C@@H](CO)O2)c(=O)n1 [Decitabine] | 1.3 | 5.7 | 13.3 | -1.8 | 4.4 | 0.1 | 21.4 | -7 | 1.7 | 6.4 | 2.2 | 5.1 | 5.8
25 | CC1(C)CCC(CN2CCN(c3ccc(C(=O)NS(=O)(=O)c4ccc(NCC5CCOCC5)c([N+](=O)[O-])c4)c(Oc4cnc5[nH]ccc5c4)c3)CC2)=C(c2ccc(Cl)cc2)C1 [Venetoclax] | -1.6 | 7.3 | 5.9 | -4.7 | -2.6 | 3.9 | 7.9 | -9.4 | 1.4 | 6.1 | -3.5 | -4.7 | 6.9
26 | N#Cc1ccc2[nH]c(O)c(-c3ccc(CN4CCOCC4)cn3)c2c1 [AZD1080] | 0 | 1 | 0.2 | -0.1 | -0.1 | -0.1 | -0.1 | -0.1 | -0.1 | 0.6 | -0.1 | 0.4 | -0.1
27 | O=C(Nc1cnn2ccc(N3CCC[C@@H]3c3cc(F)ccc3F)nc12)N1CC[C@H](O)C1 [Larotrectinib] | -0.9 | -0.9 | -0.9 | -0.9 | -0.9 | 1.2 | -0.9 | 8.8 | -0.9 | -0.8 | -0.9 | -0.9 | -0.9
28 | CO[C@@H]1[C@H](N(C)C(=O)c2ccccc2)C[C@H]2O[C@]1(C)n1c3ccccc3c3c4c(c5c6ccccc6n2c5c31)C(=O)NC4 [Midostaurin] | 7.9 | 5.8 | 7.8 | -4.2 | 3.1 | -1.3 | 3.4 | -0.3 | 2.2 | -11 | 0.6 | -1.6 | 5.9
29 | CCN(c1cc(C#CCN2CCOCC2)cc(C(=O)NCc2c(C)cc(C)[nH]c2=O)c1C)[C@H]1CC[C@H](N(C)CCOC)CC1 | -1.4 | 0.2 | -1.4 | -0.7 | -1.4 | -1.4 | 2.8 | -1.4 | -0.9 | -1.4 | -1.2 | -1.4 | 3.1
30 | CCc1cncnc1N1CCN(Cc2nc3ccc(C(F)(F)F)cc3[nH]2)CC1 | 3.3 | -3.8 | -4.2 | -1 | -3.1 | -3.7 | -3.9 | -0.6 | -3.6 | -2.8 | -2.4 | -1.7 | -0.7
